Among the test systems are HOP-62 NSCLC; SR leukemia; RPMI-8226 leukemia; 786-0 renal; NCI-H460 lung; SF-539 CNS; SNB-19 CNS; UACC-257 melanoma; MALME-3M melanoma; HOP-92 NSCLC.
What all share (experiment): inhibition of tumour cell growth, NCI panel, 48 h

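Cultured in 96-well plates, cells were exposed to test compound for 48 hours across five concentrations. GI50: concentration for 50% inhibition of growth. At the TGI there is no net growth.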 Where only a bound is given, the exact number is not on record here.

With `COC(=O)CNC(=O)[C@@H](OC)[C@@H]1Cc2cc3cc(OC4CC(OC5CC(O)C(O)C(C)O5)C(O)C(C)O4)c(C)c(O)c3c(O)c2C(=O)[C@H]1OC1CC(OC2CC(OC3CC(C)(O)C(O)C(C)O3)C(O)C(C)O2)C(O)C(C)O1` (stereo not given in full), the GI50 with HOP-62 NSCLC is 0.0908 µM; in the assay on SR leukemia, 0.0298 µM; in the assay on RPMI-8226 leukemia, 0.116 µM; in the assay with 786-0 renal, 0.26 µM; in the assay on NCI-H460 lung, 0.097 µM; in the assay on SF-539 CNS, 0.141 µM. Also, the GI50 in the assay on SNB-19 CNS was 0.154 µM; in the assay with UACC-257 melanoma, 0.146 µM; in the assay with MALME-3M melanoma, 0.123 µM; with HOP-92 NSCLC, 0.184 µM. Also, the TGI was above 50 µM in the assay with HOP-62 NSCLC; above 50 µM with SR leukemia; 1.38 µM with RPMI-8226 leukemia; above 50 µM in the assay on 786-0 renal; above 50 µM in the assay on NCI-H460 lung; 2.3 µM in the assay on SF-539 CNS. In addition, the TGI with SNB-19 CNS is above 50 µM; in the assay with UACC-257 melanoma, 1.58 µM; in the assay with MALME-3M melanoma, 1.03 µM; in the assay with HOP-92 NSCLC, 4.59 µM.
For `CCCCCCCCCc1cc(=O)c2ccc(O)cc2o1`, the TGI in the assay with HOP-62 NSCLC, in the assay with SR leukemia, in the assay with RPMI-8226 leukemia, with 786-0 renal, in the assay on NCI-H460 lung and with SF-539 CNS was above 100 µM in each case. The TGI with SNB-19 CNS is above 100 µM; in the assay with UACC-257 melanoma it was above 100 µM; with MALME-3M melanoma, above 100 µM; with HOP-92 NSCLC it was 64.6 µM.
Take `COc1ccc2oc3cccc(NCCN(C)C)c3c(=O)c2c1`: the TGI stood at 29.2 µM with HOP-62 NSCLC; 27.1 µM in the assay on SR leukemia; 33 µM in the assay with RPMI-8226 leukemia; 23.5 µM with 786-0 renal; 21.2 µM in the assay with NCI-H460 lung; 28.1 µM with SF-539 CNS. The TGI in the assay with SNB-19 CNS is 28.9 µM; in the assay with UACC-257 melanoma, 30.8 µM; with MALME-3M melanoma it was 29.2 µM; in the assay with HOP-92 NSCLC it was 27.9 µM.
For `COc1ccc2c(c1)OC(N(C(C)=O)C(C)=O)=C(C#N)C2c1ccc(F)cc1` (stereo not given), the GI50 was 1.7 µM with HOP-62 NSCLC; 0.653 µM with SR leukemia; 3.18 µM in the assay on RPMI-8226 leukemia; 3.52 µM with 786-0 renal; 1.88 µM with NCI-H460 lung; 1.55 µM in the assay on SF-539 CNS. In addition, the GI50 with SNB-19 CNS is 2.91 µM; in the assay on UACC-257 melanoma, 23 µM; with MALME-3M melanoma, 21.6 µM; in the assay on HOP-92 NSCLC, 10.9 µM. The TGI in the assay with HOP-62 NSCLC was above 100 µM; with SR leukemia, above 100 µM; with RPMI-8226 leukemia, 27.1 µM; in the assay with 786-0 renal it was above 100 µM; in the assay with NCI-H460 lung, 45.5 µM; with SF-539 CNS, 6.93 µM. The TGI in the assay with SNB-19 CNS was above 100 µM; in the assay on UACC-257 melanoma, above 100 µM; in the assay on MALME-3M melanoma, above 100 µM; in the assay with HOP-92 NSCLC, 90.4 µM.
`CN(C)C(=S)N=Nc1c(O)[nH]c2ccccc12`: the GI50 is 0.708 µM in the assay on HOP-62 NSCLC; 0.429 µM in the assay on SR leukemia; 0.418 µM in the assay on RPMI-8226 leukemia; 0.891 µM in the assay with 786-0 renal; 0.374 µM with NCI-H460 lung; 0.499 µM in the assay with SF-539 CNS. The GI50 in the assay on SNB-19 CNS is 0.546 µM; in the assay with UACC-257 melanoma, 2.31 µM; with MALME-3M melanoma it was 1.75 µM; in the assay with HOP-92 NSCLC, 0.761 µM. Besides, the TGI was 14.7 µM in the assay on HOP-62 NSCLC; 9.38 µM with SR leukemia; 33.5 µM in the assay on RPMI-8226 leukemia; 12.2 µM with 786-0 renal; 2.49 µM with NCI-H460 lung; 8.39 µM with SF-539 CNS. Moreover, the TGI is 15 µM in the assay on SNB-19 CNS, 17 µM in the assay with UACC-257 melanoma, 14.2 µM with MALME-3M melanoma and 15.9 µM with HOP-92 NSCLC.
With `CC(CNC(Cc1ccccc1)c1ccccc1)NC(Cc1ccccc1)c1ccccc1` (stereo not given), the GI50 was 3.41 µM in the assay on HOP-62 NSCLC; 1.84 µM in the assay with SR leukemia; 2.23 µM in the assay with RPMI-8226 leukemia; 1.67 µM in the assay with 786-0 renal; 2.03 µM with NCI-H460 lung; 1.93 µM in the assay with SF-539 CNS. For the same compound, the GI50 is 3.19 µM in the assay on SNB-19 CNS, 2.67 µM in the assay with UACC-257 melanoma, 1.68 µM in the assay with MALME-3M melanoma and 1.83 µM with HOP-92 NSCLC. Moreover, the TGI is 12.4 µM with HOP-62 NSCLC; 4.49 µM with SR leukemia; 4.88 µM in the assay with RPMI-8226 leukemia; 3.36 µM with 786-0 renal; 4.06 µM in the assay on NCI-H460 lung; 3.69 µM in the assay with SF-539 CNS. The TGI came out at 13.5 µM with SNB-19 CNS, 6.9 µM with UACC-257 melanoma, 3.36 µM with MALME-3M melanoma and 4.09 µM in the assay with HOP-92 NSCLC.
As to `Clc1nc(Cl)c2c(ncn2C/C=C\Cn2cnc3c(Cl)nc(Cl)nc32)n1`, the GI50 with HOP-62 NSCLC is 2.35 µM; in the assay on SR leukemia it was 0.218 µM; with RPMI-8226 leukemia, 1.58 µM; in the assay with 786-0 renal, 2.93 µM; in the assay with NCI-H460 lung it was 2.34 µM; with SF-539 CNS, 2.38 µM. The GI50 was 1.66 µM in the assay on SNB-19 CNS, 1.48 µM with UACC-257 melanoma, 2.22 µM in the assay with MALME-3M melanoma and 1.89 µM in the assay with HOP-92 NSCLC. Besides, the TGI with HOP-62 NSCLC amounted to 5.21 µM; in the assay with SR leukemia, 0.813 µM; in the assay with RPMI-8226 leukemia, 3.8 µM; with 786-0 renal, 10.5 µM; with NCI-H460 lung, 5.65 µM; with SF-539 CNS it was 5.46 µM. Further, the TGI in the assay with SNB-19 CNS was determined as 3.16 µM; in the assay on UACC-257 melanoma it was 5.9 µM; with MALME-3M melanoma it was 4.2 µM; in the assay on HOP-92 NSCLC it was 3.58 µM.
Regarding `CC(C)CC1=[N+]=C(NC#N)N=C(CCC(=O)Nc2ccccc2[N+](=O)[O-])C1`, the TGI in the assay with HOP-62 NSCLC, in the assay with SR leukemia, in the assay with RPMI-8226 leukemia, in the assay with 786-0 renal, with NCI-H460 lung and with SF-539 CNS was above 100 µM in each case. The TGI in the assay with SNB-19 CNS, with UACC-257 melanoma, in the assay on MALME-3M melanoma and with HOP-92 NSCLC was above 100 µM each time.
For `COc1cc(Nc2nc(N[C@H]3CCCC[C@@H]3N)nc3cc[nH]c(=O)c23)cc(OC)c1`, the GI50 is 3.21 µM in the assay with HOP-62 NSCLC; 0.8 µM in the assay with SR leukemia; 2.18 µM in the assay on RPMI-8226 leukemia; 3.31 µM with 786-0 renal; 1.28 µM with NCI-H460 lung; 0.454 µM in the assay with SF-539 CNS. In addition, the GI50 with SNB-19 CNS was 3.01 µM; with UACC-257 melanoma it was 1.55 µM; in the assay on MALME-3M melanoma it was 2.2 µM; in the assay with HOP-92 NSCLC it was 1.06 µM. For the same compound, the TGI was 20.8 µM with HOP-62 NSCLC; 3.91 µM in the assay with SR leukemia; 12.1 µM in the assay with RPMI-8226 leukemia; 18.8 µM in the assay on 786-0 renal; 4.21 µM in the assay with NCI-H460 lung; 2.64 µM in the assay with SF-539 CNS. For the same compound, the TGI in the assay with SNB-19 CNS was 16.7 µM; in the assay on UACC-257 melanoma, 3.33 µM; in the assay with MALME-3M melanoma it was 22.5 µM; in the assay on HOP-92 NSCLC it was 9.13 µM.
For the compound `CCCCCCCCCCCCCCCC(=O)OCC1OC(n2c(O)c(N=NC(N)=S)c3ccc([N+](=O)[O-])cc32)C(OC(C)=O)C1OC(C)=O` (stereo not given), the TGI in the assay with HOP-62 NSCLC, in the assay with SR leukemia, with RPMI-8226 leukemia, in the assay with 786-0 renal, with NCI-H460 lung and in the assay with SF-539 CNS was above 100 µM in each case. The TGI in the assay on SNB-19 CNS, in the assay with UACC-257 melanoma, with MALME-3M melanoma and in the assay with HOP-92 NSCLC was above 100 µM each time.
As to `CC(C)(C)c1ccc(S(=O)(=O)N[C@H]2CC[C@H]3[C@@H]4CCc5cc(OS(=O)(=O)O)ccc5[C@H]4CC[C@]23C)cc1`, the GI50 with HOP-62 NSCLC was 2.87 µM; in the assay with SR leukemia it was 2.45 µM; in the assay on RPMI-8226 leukemia it was 2.55 µM; in the assay with 786-0 renal, 2.5 µM; in the assay on NCI-H460 lung it was 2.19 µM; with SF-539 CNS it was 1.8 µM. Further, the GI50 in the assay on SNB-19 CNS was 3.49 µM; with UACC-257 melanoma, 2.75 µM; in the assay on MALME-3M melanoma, 2.49 µM; in the assay on HOP-92 NSCLC it was 2.11 µM. In addition, the TGI in the assay on HOP-62 NSCLC worked out at 7.81 µM; in the assay on SR leukemia it was 7.02 µM; in the assay with RPMI-8226 leukemia, 7.37 µM; in the assay with 786-0 renal, 6.3 µM; in the assay with NCI-H460 lung, 4.79 µM; in the assay on SF-539 CNS it was 3.34 µM. Moreover, the TGI was found to be 13.8 µM in the assay on SNB-19 CNS, 9.11 µM in the assay on UACC-257 melanoma, 6.05 µM in the assay with MALME-3M melanoma and 5.31 µM in the assay with HOP-92 NSCLC.
Regarding `Cn1ccnc1C(=O)/C=C/c1ccc(CC(=O)Nc2ccccc2)cc1`, the GI50 was 3.75 µM in the assay with HOP-62 NSCLC; 1.16 µM in the assay on SR leukemia; 1.45 µM in the assay on RPMI-8226 leukemia; 2.67 µM with 786-0 renal; 2.32 µM with NCI-H460 lung; 2.43 µM in the assay with SF-539 CNS. Also, the GI50 is 1.9 µM with SNB-19 CNS, 6.98 µM with UACC-257 melanoma, 5.93 µM in the assay with MALME-3M melanoma and 6.63 µM with HOP-92 NSCLC. Also, the TGI amounted to 20.8 µM in the assay on HOP-62 NSCLC; 18.9 µM with SR leukemia; 9.7 µM in the assay on RPMI-8226 leukemia; 7.86 µM with 786-0 renal; 9.52 µM in the assay on NCI-H460 lung; 7.52 µM in the assay on SF-539 CNS. Moreover, the TGI was 11.9 µM in the assay on SNB-19 CNS, 21.1 µM in the assay with UACC-257 melanoma, 22 µM with MALME-3M melanoma and above 25 µM in the assay with HOP-92 NSCLC.
With `CN(C)c1ccc2cc(-c3ccccc3F)c(N)nc2c1`, the GI50 in the assay with HOP-62 NSCLC is 1.68 µM; in the assay with SR leukemia, 0.491 µM; in the assay with RPMI-8226 leukemia, 2.83 µM; with 786-0 renal, 2.49 µM; in the assay on NCI-H460 lung, 2.02 µM; in the assay on SF-539 CNS it was 2.1 µM. In addition, the GI50 was 3.1 µM in the assay with SNB-19 CNS, 6.12 µM in the assay on UACC-257 melanoma, 1.71 µM in the assay with MALME-3M melanoma and 1.4 µM in the assay on HOP-92 NSCLC. Also, the TGI with HOP-62 NSCLC turned out to be 12.7 µM; in the assay with SR leukemia it was 4.99 µM; in the assay with RPMI-8226 leukemia, 17.7 µM; in the assay on 786-0 renal, 14.3 µM; in the assay with NCI-H460 lung, 13.2 µM; in the assay with SF-539 CNS it was 7.99 µM. Moreover, the TGI in the assay with SNB-19 CNS stood at 19.2 µM; in the assay with UACC-257 melanoma it was 18.3 µM; with MALME-3M melanoma, 15.9 µM; with HOP-92 NSCLC it was 9.7 µM.
